Laboratory results taken from ChEMBL document CHEMBL1201862, “PubChem BioAssay data set” (2004).
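Following 48 hours of exposure in 96-well plates, responses at five concentrations were used to interpolate endpoints linearly. GI50 is the concentration that inhibits growth by half.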 Calls of active or inactive are those of the source. No stated cut-off is given here; in the data, active = GI50 up to about 1.1 µM and inactive = higher.

Columns and labels:
Test in all cases: DTP human tumour cell line panel, 48 h
[1] = tested on: XF498
[2] = tested on: LXFL 529
[3] = tested on: SNB-78
[4] = tested on: DMS-273
[5] = tested on: KM-20L2
[6] = tested on: DMS-114
[7] = tested on: DLD-1
[8] = tested on: HOP-18
[9] = tested on: RXF 631

CCOc1ccccc1NC(=O)C1=C(C)NC(C)=C(C(=O)Nc2ccccc2OCC)C1c1cccc([N+](=O)[O-])c1
GI50 [1]: 17.7 µM (inactive)
GI50 [2]: 24 µM (inactive)
GI50 [3]: 23.5 µM (inactive)
GI50 [4]: 72.1 µM (inactive)
GI50 [5]: 89.1 µM (inactive)
GI50 [6]: 46.3 µM (inactive)
GI50 [7]: 46.8 µM (inactive)

CC(=O)Oc1ccc(Nn2c3ccccc3c3ccccc32)c(C)c1
GI50 [1]: 27.7 µM (inactive)
GI50 [2]: 33.7 µM (inactive)
GI50 [3]: 39.4 µM (inactive)
GI50 [4]: 19.6 µM (inactive)
GI50 [5]: 29.4 µM (inactive)
GI50 [6]: 27.1 µM (inactive)
GI50 [7]: 43.9 µM (inactive)
GI50 [8]: 16.7 µM (inactive)

Clc1ccc(OCc2nnc3n2N=C(c2ccccc2)CS3)cc1
GI50 [1]: 17.1 µM (inactive)
GI50 [2]: 13.6 µM (inactive)
GI50 [9]: 14 µM (inactive)
GI50 [4]: 16 µM (inactive)
GI50 [5]: 15.2 µM (inactive)
GI50 [7]: 16.5 µM (inactive)

CC(C)N(C(=O)C12C3C4C1C1C2C3C41I)C(C)C (configuration not stated)
GI50 [1]: > 100 µM (inactive)
GI50 [2]: > 100 µM (inactive)
GI50 [9]: > 100 µM (inactive)
GI50 [3]: > 100 µM (inactive)
GI50 [4]: > 100 µM (inactive)
GI50 [6]: > 100 µM (inactive)

CN1C(=O)C(=CN(C)c2ccccc2)C(=O)N(C)C1=O
GI50 [1]: > 100 µM (inactive)
GI50 [2]: > 100 µM (inactive)
GI50 [3]: > 100 µM (inactive)
GI50 [4]: > 100 µM (inactive)
GI50 [5]: > 100 µM (inactive)
GI50 [6]: 57.7 µM (inactive)
GI50 [7]: > 100 µM (inactive)
GI50 [8]: 69.8 µM (inactive)

O=C1C2C(C(=O)N1c1ccccc1)C1([N+](=O)[O-])C=C3c4ccccc4N(C(=O)c4ccccc4)C32C2C(=O)N(c3ccccc3)C(=O)C21 (configuration not stated)
GI50 [1]: > 100 µM (inactive)
GI50 [2]: > 100 µM (inactive)
GI50 [9]: > 100 µM (inactive)
GI50 [3]: > 100 µM (inactive)
GI50 [4]: > 100 µM (inactive)
GI50 [6]: > 100 µM (inactive)
GI50 [7]: > 100 µM (inactive)

CC1=C(C(=O)NCc2ccccc2)C(c2ccc(Cl)c(Cl)c2)C(C(=O)NCc2ccccc2)=C(C)N1
GI50 [1]: > 100 µM (inactive)
GI50 [2]: > 100 µM (inactive)
GI50 [3]: > 100 µM (inactive)
GI50 [4]: > 100 µM (inactive)
GI50 [5]: > 100 µM (inactive)
GI50 [6]: > 100 µM (inactive)
GI50 [7]: > 100 µM (inactive)

COC(=O)c1c[nH]c2nc(N3CCOCC3)nn2c1=O
GI50 [3]: > 100 µM (inactive)
GI50 [4]: > 100 µM (inactive)
GI50 [5]: > 100 µM (inactive)
GI50 [6]: > 100 µM (inactive)

CC1(Cl)CC(C)(/C=C/Cl)C(Cl)CC1Cl (configuration not stated)
GI50 [1]: 14.4 µM (inactive)
GI50 [2]: 14.7 µM (inactive)
GI50 [9]: 12.8 µM (inactive)
GI50 [3]: 20.9 µM (inactive)
GI50 [5]: 13.2 µM (inactive)
GI50 [7]: 16.7 µM (inactive)

CC1CCCC(C(O)CC2CC(=O)N(c3ccccc3)C(=O)C2)C1=O (configuration not stated)
GI50 [2]: > 100 µM (inactive)
GI50 [3]: > 100 µM (inactive)
GI50 [4]: > 100 µM (inactive)
GI50 [5]: > 100 µM (inactive)
GI50 [6]: > 100 µM (inactive)
GI50 [7]: > 100 µM (inactive)
GI50 [8]: > 100 µM (inactive)

CC(=O)CC(=O)N(CCN(C(=O)CC(C)=O)c1ccccc1)c1ccccc1
GI50 [1]: > 100 µM (inactive)
GI50 [2]: > 100 µM (inactive)
GI50 [3]: > 100 µM (inactive)
GI50 [5]: > 100 µM (inactive)
GI50 [6]: > 100 µM (inactive)
GI50 [7]: > 100 µM (inactive)
GI50 [8]: > 100 µM (inactive)

O=C(c1ccccc1)C1N=NN(Cc2ccccc2[N+](=O)[O-])C1C(=O)c1ccccc1 (configuration not stated)
GI50 [2]: > 100 µM (inactive)
GI50 [3]: > 100 µM (inactive)
GI50 [4]: > 100 µM (inactive)
GI50 [5]: > 100 µM (inactive)
GI50 [6]: > 100 µM (inactive)
GI50 [7]: > 100 µM (inactive)
GI50 [8]: > 100 µM (inactive)

Cc1cccc(C)c1NC(=O)CCC(=O)/N=C(\N)NC#N
GI50 [1]: > 100 µM (inactive)
GI50 [2]: > 100 µM (inactive)
GI50 [9]: > 100 µM (inactive)
GI50 [5]: > 100 µM (inactive)
GI50 [6]: > 100 µM (inactive)
GI50 [7]: > 100 µM (inactive)
GI50 [8]: > 100 µM (inactive)

O=C1/C(=C/c2ccc(Cl)c(Cl)c2)CNC/C1=C\c1ccc(Cl)c(Cl)c1
GI50 [1]: 19.5 µM (inactive)
GI50 [2]: 3.97 µM (inactive)
GI50 [9]: 36.3 µM (inactive)
GI50 [3]: > 57.4 µM (inactive)
GI50 [4]: 5.73 µM (inactive)
GI50 [5]: 7.4 µM (inactive)
GI50 [7]: 1.89 µM (inactive)
GI50 [8]: 33.7 µM (inactive)

COc1ccc(C2ON(c3cccc(C)n3)CC=C2C)cc1 (configuration not stated)
GI50 [1]: 38.3 µM (inactive)
GI50 [2]: 37.2 µM (inactive)
GI50 [9]: 48.2 µM (inactive)
GI50 [3]: 37.4 µM (inactive)
GI50 [4]: 26.1 µM (inactive)
GI50 [5]: 47.1 µM (inactive)
GI50 [6]: 40.7 µM (inactive)
GI50 [7]: 35.7 µM (inactive)
GI50 [8]: > 100 µM (inactive)

COC(=O)C1=C(O)c2cc3c(cc2[C@H](c2cc(OC)c(OC)c(OC)c2)C1)OCO3
GI50 [1]: 25.9 µM (inactive)
GI50 [2]: 37.8 µM (inactive)
GI50 [9]: 54.7 µM (inactive)
GI50 [3]: 87.1 µM (inactive)
GI50 [4]: 28.6 µM (inactive)
GI50 [5]: 25.3 µM (inactive)
GI50 [6]: 41.2 µM (inactive)
GI50 [7]: 34.6 µM (inactive)
GI50 [8]: > 100 µM (inactive)

COc1ccc(Cc2cc(OC)c(OC)c(OC)c2)cc1O
GI50 [1]: 4.73 µM (inactive)
GI50 [2]: 0.82 µM (active)
GI50 [9]: 25.2 µM (inactive)
GI50 [4]: 0.0713 µM (active)
GI50 [5]: 51.6 µM (inactive)
GI50 [6]: 0.127 µM (active)
GI50 [7]: 0.207 µM (active)

CC1(O)CC2C(CC1SC1CC3C(CC1(C)O)C3(C)C)C2(C)C (configuration not stated)
GI50 [1]: 35.1 µM (inactive)
GI50 [2]: 52.2 µM (inactive)
GI50 [3]: 73.3 µM (inactive)
GI50 [4]: 41.5 µM (inactive)
GI50 [6]: 48.5 µM (inactive)
GI50 [7]: 74.8 µM (inactive)
GI50 [8]: 35.2 µM (inactive)

CC1=C(CC2C(=O)N(c3ccccc3)S(=O)(=O)NC2C)C(=O)N(c2ccccc2)S(=O)(=O)N1C (configuration not stated)
GI50 [1]: > 100 µM (inactive)
GI50 [2]: > 100 µM (inactive)
GI50 [9]: > 100 µM (inactive)
GI50 [3]: > 100 µM (inactive)
GI50 [4]: > 100 µM (inactive)
GI50 [5]: > 100 µM (inactive)
GI50 [6]: > 100 µM (inactive)
GI50 [7]: > 100 µM (inactive)

COc1cc2c(c(OC)c1OC)-c1ccc(OC)c(=O)cc1C(NC(=O)COc1ccccc1)CC2 (configuration not stated)
GI50 [1]: < 0.0625 µM (active)
GI50 [2]: < 0.01 µM (active)
GI50 [9]: < 0.01 µM (active)
GI50 [3]: < 0.01 µM (active)
GI50 [4]: < 0.01 µM (active)
GI50 [5]: < 0.01 µM (active)
GI50 [6]: < 0.01 µM (active)
GI50 [7]: < 0.01 µM (active)
GI50 [8]: > 100 µM (inactive)

O=[N+]([O-])c1ccc(-n2nnc(C3=NCCN3)c2-c2ccccc2)cc1
GI50 [1]: > 100 µM (inactive)
GI50 [2]: > 100 µM (inactive)
GI50 [3]: > 100 µM (inactive)
GI50 [4]: > 100 µM (inactive)
GI50 [5]: > 100 µM (inactive)
GI50 [6]: > 100 µM (inactive)
GI50 [7]: > 100 µM (inactive)
GI50 [8]: > 100 µM (inactive)

COc1cc2c(cc1OC)C1c3ccccc3C(C#N)(C2)N(C(=O)c2ccccc2)C1O (configuration not stated)
GI50 [1]: 24.8 µM (inactive)
GI50 [2]: 46.6 µM (inactive)
GI50 [9]: > 100 µM (inactive)
GI50 [3]: 37.1 µM (inactive)
GI50 [4]: 29.6 µM (inactive)
GI50 [5]: 82.4 µM (inactive)
GI50 [6]: 41.2 µM (inactive)
GI50 [7]: 74.1 µM (inactive)
GI50 [8]: > 100 µM (inactive)

Fc1cccc(/C=N/C23CC4CC(CC(C4)C2)C3)c1
GI50 [1]: > 100 µM (inactive)
GI50 [2]: > 100 µM (inactive)
GI50 [3]: > 100 µM (inactive)
GI50 [4]: > 100 µM (inactive)
GI50 [5]: > 100 µM (inactive)
GI50 [6]: > 100 µM (inactive)
GI50 [7]: > 100 µM (inactive)
GI50 [8]: > 100 µM (inactive)

CCN(c1n[n+]2c(-c3ccccc3)csc2s1)c1n[n+]2c(-c3ccccc3)csc2s1
GI50 [1]: 70.6 µM (inactive)
GI50 [2]: 50.9 µM (inactive)
GI50 [3]: > 100 µM (inactive)
GI50 [4]: 46.8 µM (inactive)
GI50 [5]: 72.8 µM (inactive)
GI50 [6]: 25.9 µM (inactive)
GI50 [7]: > 100 µM (inactive)
GI50 [8]: > 100 µM (inactive)
